Tests used:
Format in all cases: cell-based
Parameters in all cases: key to effect of inhibiting tumor cell growth: “+” represents that the compound has the effect of inhibiting tumor cell growth
[1] = cytotoxicity assay in 293 cells; details: 293
[2] = test system: kidney cancer cells (293); assay: cytotoxicity assay in 293 cells; details: Homo sapiens, HEK293
[3] = cytotoxicity assay in HNOF cells; details: human, HNOF cells
HNOF = assay: cytotoxicity assay in HNOF cells; details: HNOF
lung cancer cells (A549) = assay: cytotoxicity assay in A549 cells; details: for IC50: Homo sapiens
Protocol: (§1) Please refer to FIG. 1A, FIG. 1B and Table 2, which show the analysis results of the compound of Formula (I) inhibiting ADAM9 activity. In FIG. 1A, Bm7 lung cancer cells were treated with the derivatives of the compound 6X-0310, and then cultured under anchorage-free culture condition. The expressions of ADAM9 and CDCP1 in Bm7 lung cancer cells were detected by Western blot, in which EF1α is an internal control, and mock represents Bm7 lung cancer cells without treatment. […] In the experiment, the compounds of Formula (I) of Example 1 to Example 32 were further performed cytotoxicity assay to measure the IC50 value of the compounds of Formula (I) of the present disclosure in lung cancer cell lines.

[4] = test system: lung cancer cells (H1299); assay: cytotoxicity assay in H1299 cells; details: for effect of inhibiting tumor cell growth: H1299; for IC50: Homo sapiens, NCI-H1299
Protocol: as §1

lung cancer cells (TC1) = assay: cytotoxicity assay in TC1 cells; details: for IC50: TC-1
Protocol: as §1

[5] = test system: lung cancer cells (Bm7brmx2); assay: cytotoxicity assay in Bm7brmx2 cells
Protocol: as §1

[6] = test system: lung cancer cells (Bm7brmx2-1st); assay: cytotoxicity assay in Bm7brmx2-1st cells
Protocol: as §1

[7] = test system: lung cancer cells (Bm7brmx2-2nd); assay: cytotoxicity assay in Bm7brmx2-2nd cells
Protocol: as §1

Row | Structure (SMILES) | effect of inhibiting tumor cell growth [1] | IC50 [2] [µM] | IC50 [3] [µM] | effect of inhibiting tumor cell growth (HNOF) | effect of inhibiting tumor cell growth (lung cancer cells (A549)) | IC50 (lung cancer cells (A549)) [µM] | effect of inhibiting tumor cell growth [4] | IC50 [4] [µM] | effect of inhibiting tumor cell growth (lung cancer cells (TC1)) | IC50 (lung cancer cells (TC1)) [µM] | IC50 [5] [µM] | effect of inhibiting tumor cell growth [5] | IC50 [6] [µM] | effect of inhibiting tumor cell growth [6] | IC50 [7] [µM] | effect of inhibiting tumor cell growth [7]
1 | O=C1c2ccccc2C(=O)N1CCc1csc(Nc2ccc(Cl)c(Cl)c2)n1 [2X-0336] | + | 58.7 | 80 | + | + | 128 | + | 101 | + | 55.9 | 117 | + | 37.6 | + | 63 | +
2 | N#C/C(=C/c1ccc(OCc2ccccc2)cc1)c1nc(CCN2C(=O)c3ccccc3C2=O)cs1 [4X-0301] | + | 49.5 | 77.6 | + | + | 161 | + | 102 | + | 71.9 | 128 | + | 61.2 | + | 310 | +
3 | N#C/C(=C/c1cccc(C(F)(F)F)c1)c1nc(CCN2C(=O)c3ccccc3C2=O)cs1 [4X-0302] | + | 55.7 | 152 | + | + | 116 | + | 190 | + | 125 | 852 | + | 520 | + | 434 | +
4 | CC(C)CN1CCCc2cc(/C=C(\C#N)c3nc(CCN4C(=O)c5ccccc5C4=O)cs3)ccc21 [4X-0311] | + | 62.9 | 80.7 | + | + | 238 | + | > 125 | + | 345 | 60.6 | + | 34.4 | + | 86.6 | +
5 | N#C/C(=C\c1ccccc1Oc1ccc(Cl)cc1Cl)c1nc(CCN2C(=O)c3ccccc3C2=O)cs1 [4X-0312] | + | 134 | 262 | + | + | 644 | + | 121 | + | 136 | 301 | + | 63.4 | + | 491 | +
6 | N#C/C(=C\c1ccncc1)c1nc(CCN2C(=O)c3ccccc3C2=O)cs1 [4X-0314] | + | 269 | 153 | + | + | 527 | + | 38400 | + | 176 | 202 | + | 1420 | + | 15700 | +
7 | O=C1c2ccccc2C(=O)N1CCc1csc(OCc2cc(F)c(F)c(F)c2)n1 [13W-0300] | + |  |  | + | + |  | + |  | + |  |  | + |  | + |  | +
8 | O=C1c2ccccc2C(=O)N1CCc1csc(SCc2ccc(C(F)(F)F)cc2)n1 [13W-0301] | + |  |  | + | + |  | + |  | + |  |  | + |  | + |  | +
9 | O=C(c1nc(CCN2C(=O)c3ccccc3C2=O)cs1)C(O)c1cc2ccccc2o1 (centres unmarked) [13W-0302] | + |  |  | + | + |  | + |  | + |  |  | + |  | + |  | +
10 | O=C1c2ccccc2C(=O)N1CCc1csc(-c2cc3ccccc3[nH]2)n1 [13W-0303] | + |  |  | + | + |  | + |  | + |  |  | + |  | + |  | +
11 | O=C1c2ccccc2C(=O)N1CCc1csc(N2C(=O)c3ccccc3C2=O)n1 [13W-0305] | + |  |  | + | + |  | + |  | + |  |  | + |  | + |  | +
12 | O=C1c2ccccc2C(=O)N1CCc1csc(N2CCCCC2)n1 [13W-0306] | + |  |  | + | + |  | + |  | + |  |  | + |  | + |  | +
13 | O=C1CCC(=O)C1c1nc(CCN2C(=O)c3ccccc3C2=O)cs1 [13W-0307] | + |  |  | + | + |  | + |  | + |  |  | + |  | + |  | +
